# Target: T1, B1R receptor of the rat (CHO K1 cells stably transfected with the B1R gene of the rat) (Rattus norvegicus, UniProt P97583)
# T1 construct: expressed in transfected cells; host or cells: CHO K1 cells (Chinese hamster ovary), stably transfected
# T1 sequence (P97583 1-337): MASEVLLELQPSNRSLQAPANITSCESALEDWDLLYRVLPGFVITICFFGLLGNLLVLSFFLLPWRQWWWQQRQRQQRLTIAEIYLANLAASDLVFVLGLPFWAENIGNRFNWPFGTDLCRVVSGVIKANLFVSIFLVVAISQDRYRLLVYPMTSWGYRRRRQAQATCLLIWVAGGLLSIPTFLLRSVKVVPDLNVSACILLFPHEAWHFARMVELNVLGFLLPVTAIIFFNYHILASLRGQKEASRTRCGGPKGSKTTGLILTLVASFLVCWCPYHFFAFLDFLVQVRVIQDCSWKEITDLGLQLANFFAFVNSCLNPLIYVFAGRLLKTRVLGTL
# Test: Functional study on the bradykinin receptor 1 (B1R), Ca2+ fluorescence (Fluo-4) FLIPR/Novostar assay, rB1R cells
# Type: cell-based
# Conditions: CHO-K1, 10 μM, read-out: % Inhibition (r-B1R) at 10 μM
# Summary of the method: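 Stably transfected CHO K1 cells carrying human or rat B1R were Fluo-4 loaded and Ca2+ fluorescence read by FLIPR or Novostar. Compounds were added first at 10 μM for % activation, then the EC80 agonist was applied after 6-20 min (human: Lys-Des-Arg9-bradykinin; rat: Des-Arg9-bradykinin). % inhibition is relative to maximum achievable inhibition, and IC50 comes from concentration series.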
row,inhibition at 10 µM,SMILES
1,112%,"Cc1cc(N2CCC(N(C)C(=O)c3ccc4c(c3)C(NC(=O)c3cccc(C(F)(F)F)c3Cl)CC4)CC2)cc(C)n1 (stereo not drawn) [CC_H-303, 3-[[2-Chloro-3-(trifluoromethyl)-benzoyl]amino]-N-[1-(2,6-dimethyl-pyridin-4-yl)-piperidin-4-yl]-N-methyl-2,3-dihydro-1H-indene-5-carboxylic acid amide]"
2,98%,"Cc1cc(N2CCC(N(C)C(=O)c3ccc4c(c3)C(NC(=O)Nc3ccccc3Cl)CC4)CC2)cc(C)n1 (stereo not drawn) [CC_H-304, 3-[[(2-Chlorophenyl)-carbamoyl]amino]-N-[1-(2,6-dimethyl-pyridin-4-yl)-piperidin-4-yl]-N-methyl-2,3-dihydro-1H-indene-5-carboxylic acid amide]"
3,109%,"Cc1cc(N2CCC(N(C)C(=O)c3ccc4c(c3)C(NC(=O)Nc3cccc(Cl)c3)CC4)CC2)cc(C)n1 (stereo not drawn) [CC_H-305, 3-[[(3-Chlorophenyl)-carbamoyl]amino]-N-[1-(2,6-dimethyl-pyridin-4-yl)-piperidin-4-yl]-N-methyl-2,3-dihydro-1H-indene-5-carboxylic acid amide]"
4,96%,"Cc1cc(N2CCC(N(C)C(=O)c3ccc4c(c3)C(NC(=O)Nc3cc(Cl)ccc3Cl)CC4)CC2)cc(C)n1 (stereo not drawn) [CC_H-308, 3-[[(2,5-Dichloro-phenyl)-carbamoyl]amino]-N-[1-(2,6-dimethyl-pyridin-4-yl)-piperidin-4-yl]-N-methyl-2,3-dihydro-1H-indene-5-carboxylic acid amide]"
5,101%,"Cc1cc(N2CCC(N(C)C(=O)c3ccc4c(c3)C(NC(=O)Nc3ccc(Cl)cc3Cl)CC4)CC2)cc(C)n1 (stereo not drawn) [CC_H-310, 3-[[(2,4-Dichlorophenyl)-carbamoyl]amino]-N-[1-(2,6-dimethyl-pyridin-4-yl)-piperidin-4-yl]-N-methyl-2,3-dihydro-1H-indene-5-carboxylic acid amide]"
6,80%,"Cc1cc(N2CCC(N(C)C(=O)c3ccc4c(c3)C(NC(=O)Nc3cc(C(F)(F)F)ccc3Cl)CC4)CC2)cc(C)n1 (stereo not drawn) [CC_H-311, 3-[[[2-Chloro-5-(trifluoromethyl)-phenyl]-carbamoyl]amino]-N-[1-(2,6-dimethyl-pyridin-4-yl)-piperidin-4-yl]-N-methyl-2,3-dihydro-1H-indene-5-carboxylic acid amide]"
7,81%,"Cc1cc(N2CCC(N(C)C(=O)c3ccc4c(c3)C(NC(=O)Nc3ccc(F)c(Cl)c3)CC4)CC2)cc(C)n1 (stereo not drawn) [CC_H-314, 3-[[(3-Chloro-4-fluoro-phenyl)-carbamoyl]amino]-N-[1-(2,6-dimethyl-pyridin-4-yl)-piperidin-4-yl]-N-methyl-2,3-dihydro-1H-indene-5-carboxylic acid amide]"
8,106%,"Cc1cc(N2CCC(N(C)C(=O)c3ccc4c(c3)C(NC(=O)N(C)c3ccccc3Cl)CC4)CC2)cc(C)n1 (stereo not drawn) [CC_H-316, 3-[[(2-Chlorophenyl)-methyl-carbamoyl]amino]-N-[1-(2,6-dimethyl-pyridin-4-yl)-piperidin-4-yl]-N-methyl-2,3-dihydro-1H-indene-5-carboxylic acid amide]"
9,110%,"Cc1cc(N2CCC(N(C)C(=O)c3ccc4c(c3)C(NC(=O)N(C)c3ccc(Cl)cc3Cl)CC4)CC2)cc(C)n1 (stereo not drawn) [CC_H-317, 3-[[(2,4-Dichlorophenyl)-methyl-carbamoyl]amino]-N-[1-(2,6-dimethyl-pyridin-4-yl)-piperidin-4-yl]-N-methyl-2,3-dihydro-1H-indene-5-carboxylic acid amide]"
10,112%,"Cc1cc(N2CCC(N(C)C(=O)c3ccc4c(c3)C(N(C)C(=O)c3cc(F)ccc3Cl)CC4)CC2)cc(C)n1 (stereo not drawn) [CC_H-325, 3-[(2-Chloro-5-fluoro-benzoyl)-methyl-amino]-N-[1-(2,6-dimethyl-pyridin-4-yl)-piperidin-4-yl]-N-methyl-2,3-dihydro-1H-indene-5-carboxylic acid amide]"
11,112%,"Cc1cc(N2CCC(N(C)C(=O)c3ccc4c(c3)C(N(C)C(=O)c3cc(C(F)(F)F)ccc3Cl)CC4)CC2)cc(C)n1 (stereo not drawn) [CC_H-326, 3-[[2-Chloro-5-(trifluoromethyl)-benzoyl]-methyl-amino]-N-[1-(2,6-dimethyl-pyridin-4-yl)-piperidin-4-yl]-N-methyl-2,3-dihydro-1H-indene-5-carboxylic acid amide]"
12,112%,"Cc1cc(N2CCC(N(C)C(=O)c3ccc4c(c3)C(N(C)C(=O)c3c(F)ccc(C)c3Cl)CC4)CC2)cc(C)n1 (stereo not drawn) [CC_H-327, 3-[(2-Chloro-6-fluoro-3-methyl-benzoyl)-methyl-amino]-N-[1-(2,6-dimethyl-pyridin-4-yl)-piperidin-4-yl]-N-methyl-2,3-dihydro-1H-indene-5-carboxylic acid amide]"
13,111%,"Cc1cc(N2CCC(N(C)C(=O)c3ccc4c(c3)C(N(C)C(=O)c3cc(Cl)ccc3Cl)CC4)CC2)cc(C)n1 (stereo not drawn) [CC_H-328, 3-[(2,5-Dichloro-benzoyl)-methyl-amino]-N-[1-(2,6-dimethyl-pyridin-4-yl)-piperidin-4-yl]-N-methyl-2,3-dihydro-1H-indene-5-carboxylic acid amide]"

# Second part, the molecule before the results:
row,SMILES,inhibition at 10 µM
1,"Cc1cc(N2CCC(N(C)C(=O)c3ccc4c(c3)C(NC(=O)Nc3c(Cl)cccc3Cl)CC4)CC2)cc(C)n1 (stereo not drawn) [CC_H-306, 3-[[(2,6-Dichloro-phenyl)-carbamoyl]amino]-N-[1-(2,6-dimethyl-pyridin-4-yl)-piperidin-4-yl]-N-methyl-2,3-dihydro-1H-indene-5-carboxylic acid amide]",107%
2,"Cc1cc(N2CCC(N(C)C(=O)c3ccc4c(c3)C(NC(=O)Nc3cccc(Cl)c3Cl)CC4)CC2)cc(C)n1 (stereo not drawn) [CC_H-307, 3-[[(2,3-Dichloro-phenyl)-carbamoyl]amino]-N-[1-(2,6-dimethyl-pyridin-4-yl)-piperidin-4-yl]-N-methyl-2,3-dihydro-1H-indene-5-carboxylic acid amide]",91%
3,"Cc1cc(N2CCC(N(C)C(=O)c3ccc4c(c3)C(NC(=O)Nc3ccc(Cl)cc3C(F)(F)F)CC4)CC2)cc(C)n1 (stereo not drawn) [CC_H-312, 3-[[[4-Chloro-2-(trifluoromethyl)-phenyl]-carbamoyl]amino]-N-[1-(2,6-dimethyl-pyridin-4-yl)-piperidin-4-yl]-N-methyl-2,3-dihydro-1H-indene-5-carboxylic acid amide]",92%
4,"COc1ccc(Cl)cc1NC(=O)NC1CCc2ccc(C(=O)N(C)C3CCN(c4cc(C)nc(C)c4)CC3)cc21 (stereo not drawn) [CC_H-315, 3-[[(5-Chloro-2-methoxy-phenyl)-carbamoyl]amino]-N-[1-(2,6-dimethyl-pyridin-4-yl)-piperidin-4-yl]-N-methyl-2,3-dihydro-1H-indene-5-carboxylic acid amide]",72%
5,"Cc1cc(N2CCC(N(C)C(=O)c3ccc4c(c3)C(NC(=O)CC(C)C)CC4)CC2)cc(C)n1 (stereo not drawn) [CC_H-318, N-[1-(2,6-Dimethyl-pyridin-4-yl)-piperidin-4-yl]-N-methyl-3-(3-methyl-butanoylamino)-2,3-dihydro-1H-indene-5-carboxylic acid amide]",111%
6,"CCCC(=O)NC1CCc2ccc(C(=O)N(C)C3CCN(c4cc(C)nc(C)c4)CC3)cc21 (stereo not drawn) [CC_H-319, 3-(Butanoylamino)-N-[1-(2,6-dimethyl-pyridin-4-yl)-piperidin-4-yl]-N-methyl-2,3-dihydro-1H-indene-5-carboxylic acid amide]",106%
7,"Cc1cc(N2CCC(N(C)C(=O)c3ccc4c(c3)C(NC(=O)CCC3CCCC3)CC4)CC2)cc(C)n1 (stereo not drawn) [CC_H-320, 3-(3-Cyclopentyl-propanoylamino)-N-[1-(2,6-dimethyl-pyridin-4-yl)-piperidin-4-yl]-N-methyl-2,3-dihydro-1H-indene-5-carboxylic acid amide]",110%
8,"CCS(=O)(=O)NC1CCc2ccc(C(=O)N(C)C3CCN(c4cc(C)nc(C)c4)CC3)cc21 (stereo not drawn) [CC_H-321, N-[1-(2,6-Dimethyl-pyridin-4-yl)-piperidin-4-yl]-3-[(ethylsulfonyl)amino]-N-methyl-2,3-dihydro-1H-indene-5-carboxylic acid amide]",65%
9,"Cc1cc(N2CCC(N(C)C(=O)c3ccc4c(c3)C(NS(=O)(=O)Cc3cccc(C(F)(F)F)c3)CC4)CC2)cc(C)n1 (stereo not drawn) [CC_H-322, N-[1-(2,6-Dimethyl-pyridin-4-yl)-piperidin-4-yl]-N-methyl-3-[[[3-(trifluoromethyl)phenyl]-methylsulfonyl]amino]-2,3-dihydro-1H-indene-5-carboxylic acid amide]",84%
10,"Cc1cc(N2CCC(N(C)C(=O)c3ccc4c(c3)C(NS(=O)(=O)Cc3ccccc3F)CC4)CC2)cc(C)n1 (stereo not drawn) [CC_H-323, N-[1-(2,6-Dimethyl-pyridin-4-yl)-piperidin-4-yl]-3-[[(2-fluorophenyl)-methylsulfonyl]amino]-N-methyl-2,3-dihydro-1H-indene-5-carboxylic acid amide]",110%
11,"Cc1cc(N2CCC(N(C)C(=O)c3ccc4c(c3)C(NS(=O)(=O)CCc3ccccc3Cl)CC4)CC2)cc(C)n1 (stereo not drawn) [CC_H-324, 3-[[2-(2-Chlorophenyl)-ethylsulfonyl]amino]-N-[1-(2,6-dimethyl-pyridin-4-yl)-piperidin-4-yl]-N-methyl-2,3-dihydro-1H-indene-5-carboxylic acid amide]",108%
